{"source": "patent US20040234555A1", "about": "“Swine growth promoters and method of promoting swine growth” (priority 2001, published 2004)", "key": {"piglets": {"system": "piglets", "experiment": "Growth of piglets given feed with the additive from the 14th day after birth (Example 2)", "type": "in vivo, pig", "method": "Using piglets born during a period of from October through November in 2000, feeding was carried out on the 14th day after their birth. […] In this case, the test was carried out using 10 head in each plot, and the average values were calculated."}, "Large Yorkshire piglets": {"system": "Large Yorkshire piglets", "experiment": "Growth and blood examination of piglets after a single administration on the third day after birth (Example 1)", "quoted_text": "Thereafter, usual management was carried out, feeding was started on the 14th day after birth, and body weights were measured and blood samples were collected on the 21st day after birth to carry out inspections in accordance with usual way. Also, body weights were measured at the time of shipping after about 6 months, and the number of days reaching a shipping body weight criterion of 110 kg (required days for 110 kg) was calculated. The tests were carried out using 12 animals in each plot, and the values were calculated as average values by excluding pigs which came off the test due to a disease and the like.\nDG (daily gain; kg/day)=shipping body weight (kg)÷raised days (day)\nRequired days for 110 kg (day)=110 (kg)÷DG (kg/day)"}, "[1]": {"conditions": "21st day after birth, treatment on 3rd day after birth"}}, "data": [{"smiles": "Cl.NCC(=O)CCC(=O)O", "note": "[ALA, 5-aminolevulinic acid hydrochloride]", "values": [{"measurement": "Required days for 110 kg", "setting": "piglets; 10 mg 5-aminolevulinic acid hydrochloride per 1 kg feed, with or without 10 mg ferric ammonium citrate per 1 kg feed, 10 head per plot", "result": 172}, {"measurement": "Growth (in words)", "setting": "piglets; feed additive from 14th day after birth", "result": "markedly enhanced"}, {"measurement": "Body weight: relative value to 100 at the commencement of the test on the 3rd day after birth", "setting": "Large Yorkshire piglets; 21st day after birth", "result": 233, "unit": "%"}, {"measurement": "B12: vitamin B12 concentration in serum", "setting": "Large Yorkshire piglets; [1]", "result": 240, "unit": "pg/mL"}, {"measurement": "Fe: serum iron concentration in serum", "setting": "Large Yorkshire piglets; [1]", "result": 44, "unit": "µg/dL"}, {"measurement": "Hb: hemoglobin concentration in whole blood sample", "setting": "Large Yorkshire piglets; [1]", "result": 8.5, "unit": "g/dL"}, {"measurement": "Ht: blood cell volume ratio in whole blood sample", "setting": "Large Yorkshire piglets; [1]", "result": 30.5, "unit": "%"}, {"measurement": "TP: total serum protein concentration in serum", "setting": "Large Yorkshire piglets; [1]", "result": 5.8, "unit": "g/dL"}, {"measurement": "Required days for 110 kg (number of days reaching shipping body weight criterion of 110 kg)", "setting": "Large Yorkshire piglets; calculated from shipping body weight after about 6 months, 110 kg ÷ daily gain", "result": 183, "unit": "days"}, {"measurement": "Frequency of disease onset", "setting": "Large Yorkshire piglets; examination about 6 months after birth, 12 animals per plot", "result": 0}, {"measurement": "Pigs which came off the test system due to a disease", "setting": "Large Yorkshire piglets; in and after the 21st day", "result": "diseases were not found"}, {"measurement": "Pigs which came off the test plots due to a disease and the like", "setting": "Large Yorkshire piglets; until the 21st day after birth", "result": "not found"}]}]}
